Each structure is given as a SMILES string.

The target of this test is DCN1 (Homo sapiens (Human), UniProt Q96GG9). Briefly: TR-FRET binding assay (biotin-DCN1 / Ac-UBE2M12-AlexaFluor488). As to conditions: mean ± SD (n); read-out: DCN1_TRFRET Mean EC50. The procedure: • IC50 values were generated using our TR-FRET binding assay and are represented as the mean of three replicates with errors reported as the standard deviation.
DCN1, sequence (Q96GG9 whole entry): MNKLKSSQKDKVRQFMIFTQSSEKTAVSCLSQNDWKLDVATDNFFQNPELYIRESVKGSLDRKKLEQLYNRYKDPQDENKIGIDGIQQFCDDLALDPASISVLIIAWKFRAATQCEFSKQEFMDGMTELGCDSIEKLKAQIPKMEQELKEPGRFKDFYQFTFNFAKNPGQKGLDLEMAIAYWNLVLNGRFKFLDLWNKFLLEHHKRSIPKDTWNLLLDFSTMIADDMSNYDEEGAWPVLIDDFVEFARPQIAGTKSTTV
The assay cocktail was then incubated for 1 h at room temperature and distributed using a WellMate instrument (Matrix). Compounds to be screened were added to assay plates from DMSO stock solutions by pin transfer using 50SS pins (V&P Scientific). […] All compounds were tested in triplicate or more.
On to `CCN1C(=O)[C@@H](NC(=O)c2cccc(C)c2)[C@@H](c2ccc(F)cc2)c2c(C)nn(C3CCCCC3)c21` [RG-0008877, N-[(4S,5S)-1-cyclohexyl-7-ethyl-4-(4-fluorophenyl)-3-methyl-6-oxo-1H,4H,5H,6H,7H-pyrazolo[3,4-b]pyridin-5-yl]-3-methylbenzamide], for which the EC50 came out at 0.835 ± 0.0348 µM.

On to `CCN1C(=O)[C@@H](NC(=O)c2cccc(C)c2)[C@@H](c2ccc(F)cc2)c2c(C)nn(C3CCCC3)c21` [RG-0008878, N-[(4S,5S)-1-cyclopentyl-7-ethyl-4-(4-fluorophenyl)-3-methyl-6-oxo-1H,4H,5H,6H,7H-pyrazolo[3,4-b]pyridin-5-yl]-3-methylbenzamide], for which the EC50 was found to be 0.77 ± 0.0761 µM.

For `CCN1C(=O)[C@@H](NC(=O)c2cccc(C)c2)[C@@H](c2ccc(F)cc2)c2c(C)nn(C(C)C(F)(F)F)c21` (stereo partly drawn) [RG-0008879, N-[(4S,5S)-7-ethyl-4-(4-fluorophenyl)-3-methyl-6-oxo-1-(1,1,1-trifluoropropan-2-yl)-1H,4H,5H,6H,7H-pyrazolo[3,4-b]pyridin-5-yl]-3-methylbenzamide], the EC50 amounted to 7.26 ± 1.09 µM.

With `CCN1C(=O)[C@@H](NC(=O)c2cccc(C)c2)[C@@H](c2ccc(F)cc2)c2c(CO)nn(-c3ccccc3)c21` [RG-0008880, N-[(4S,5S)-7-ethyl-4-(4-fluorophenyl)-3-(hydroxymethyl)-6-oxo-1-phenyl-1H,4H,5H,6H,7H-pyrazolo[3,4-b]pyridin-5-yl]-3-methylbenzamide], the 50% effective concentration (EC50) was found to be 0.173 ± 0.0297 µM.

For `Cc1nn(-c2ccccc2)c2c1[C@H](c1ccc(F)cc1)[C@H](NC(=O)c1cccc(C(F)(F)F)c1)C(=O)N2C` [RG-0008885, N-[(4S,5S)-4-(4-fluorophenyl)-3,7-dimethyl-6-oxo-1-phenyl-1H,4H,5H,6H,7H-pyrazolo[3,4-b]pyridin-5-yl]-3-(trifluoromethyl)benzamide], the EC50 came to 0.943 ± 0.0863 µM.

In the case of `Cc1nn(-c2ccccc2)c2c1[C@H](c1ccc(F)cc1)[C@H](N(C)C(=O)c1cccc(C(F)(F)F)c1)C(=O)N2C` [RG-0008886, N-[(4S,5S)-4-(4-fluorophenyl)-3,7-dimethyl-6-oxo-1-phenyl-1H,4H,5H,6H,7H-pyrazolo[3,4-b]pyridin-5-yl]-N-methyl-3-(trifluoromethyl)benzamide], the EC50 is above 36.5 µM.

For `CCN1C(=O)[C@@H](N(CC)C(=O)c2cccc(C)c2)[C@@H](c2ccc(F)cc2)c2c(C)nn(-c3ccccc3)c21` [RG-0009505, N-ethyl-N-[(4S,5S)-7-ethyl-4-(4-fluorophenyl)-3-methyl-6-oxo-1-phenyl-1H,4H,5H,6H,7H-pyrazolo[3,4-b]pyridin-5-yl]-3-methylbenzamide], the concentration giving a half-maximal response (EC50) amounted to 2.62 ± 0.404 µM.

In the case of `Cc1cccc(C(=O)N[C@@H]2CNc3c(c(C)nn3-c3ccccc3)[C@@H]2c2ccc(F)cc2)c1` [RG-0009506, N-[(4S,5S)-4-(4-fluorophenyl)-3-methyl-1-phenyl-1H,4H,5H,6H,7H-pyrazolo[3,4-b]pyridin-5-yl]-3-methylbenzamide], the EC50 was above 36.5 µM.

For `CCN1C[C@@H](NC(=O)c2cccc(C)c2)[C@@H](c2ccc(F)cc2)c2c(C)nn(-c3ccccc3)c21` [RG-0009507, N-[(4S,5S)-7-ethyl-4-(4-fluorophenyl)-3-methyl-1-phenyl-1H,4H,5H,6H,7H-pyrazolo[3,4-b]pyridin-5-yl]-3-methylbenzamide], the EC50 was above 36.5 µM.

As to `CC(=O)CN1C(=O)[C@@H](NC(=O)c2cccc(C)c2)[C@@H](c2ccc(F)cc2)c2c(C)nn(-c3ccccc3)c21` [RG-0009508, N-[(4S,5S)-4-(4-fluorophenyl)-3-methyl-6-oxo-7-(2-oxopropyl)-1-phenyl-1H,4H,5H,6H,7H-pyrazolo[3,4-b]pyridin-5-yl]-3-methylbenzamide], the 50% effective concentration (EC50) amounted to 7.05 ± 1.67 µM.

In the case of `Cc1cccc(C(=O)N[C@@H]2C(=O)N(CC(F)(F)F)c3c(c(C)nn3-c3ccccc3)[C@@H]2c2ccc(F)cc2)c1` [RG-0009509, N-[(4S,5S)-4-(4-fluorophenyl)-3-methyl-6-oxo-1-phenyl-7-(2,2,2-trifluoroethyl)-1H,4H,5H,6H,7H-pyrazolo[3,4-b]pyridin-5-yl]-3-methylbenzamide], the EC50 stood at 7 ± 1.71 µM.
